Data: US20090192192A1, “INHIBITORS OF BIOFILM FORMATION OF GRAM-POSITIVE AND GRAM-NEGATIVE BACTERIA” (priority 2007, published 2009)

test system: Pseudomonas aeruginosa PAO1; assay: MBEC assay, biofilm formation of P. aeruginosa PAO1; assay type: cell-based; conditions: compound concentration 100 μM, class symbols
Protocol: The compound to be tested was dissolved in DMSO to obtain a concentration that was 100 times that of the final concentration required (1 mM for the 10 μM assay and 10 mM for the 100 μM assay). 1.5 μL of the above solution was placed into each well of a 96 well plate (final volume in each well=150 μL, final DMSO concentration of 1% (v/v)).
To grow the organism and form a biofilm, a cryogenic stock of the test organism (at −70° C.) was used. A first sub-culture was streaked out onto TSA (tryptic soy agar), upon which the plate was incubated at 35±2° C. for 24 hours and stored wrapped in parafilm at 4° C. afterwards. From this first sub-culture, a second sub-culture was streaked out onto TSA. The plate was incubated at 35±2° C. for 24 hours. The second sub-culture was used within 24 hours starting from the time it was first removed from incubation. Using the second sub-culture an inoculum in 3 mL sterile water that matches a 0.5 McFarland Standard (1.5×10^8 cells per mL) was created in a glass test tube using a sterile cotton swab. 2.2 mL of this solution was diluted in 22 mL 100% TSB (tryptic soy broth) medium to a cell density of approximately […]. The diluted organism was inverted 3-5 times to achieve uniform mixing of the organism. One sample (100 μl) of the diluted organism was used for an inoculum check by serially diluting and spot plating on TSA.
To prepare a challenge plate, […] of the diluted organism was added to each well of a 96 well plate except the sterility control wells. The test compounds were added to the wells to make up final concentrations of 10 μM and […] (1.5 μL/well) in the designated location in the test plate. 128.5 μL of 100% universal neutralizer (1% Tween 80 in Cation Adjusted Mueller Hinton Broth, CAMHB) was placed in each of the wells. 130 μL of media was added to the growth control wells. 128.5 μL of media+1.5 μL of DMSO were added to a second set of growth control wells. 150 μL of media was added to the sterility controls. Each sample was run in triplicate. The plate was covered by a lid with a peg per well and wrapped in parafilm and placed on a shaker in a humidified incubator (GeneVac) at 35±+2° C. for 24 hours set at 110 rpm.
Rinse plate(s) of 0.9% saline (200 μL per well) were prepared in a sterile 96 well microtitre plate. Lid-associated pegs were rinsed in 0.9% saline for approximately 1-2 minutes. The peg lid was transferred to the recovery media (1.0% Tween 80 in CAMHB) then sonicated for 30 minutes to dislodge surviving biofilm. Following sonication, 100 μL from each well of the 96 well plate was placed into the first 12 wells of the first row of a 96 well microtiter plate. 180 μl of 0.9% sterile saline was placed in the remaining rows. A serial dilution (10^0-10^7) was prepared by moving 20 μl down each of the 8 rows. 20 μl from each well was removed and spot plated on a prepared TSA. In the remaining recovery plate, 100 μl of fresh growth media (1.0% Tween 80 in CAMHB) was placed in each well to replace the amount removed. The recovery plate was covered with a regular lid and incubated at 35±2° C. for 24 hours and read visually to confirm antimicrobial activity of the test compounds.
The compounds of the present disclosure have been tested regarding their efficiency to inhibit biofilm formation of Staphylococcus aureus U of C#18 (MRSA), Staphylococcus aureus 456 (MRSA), Staphylococcus epidermidis RP62A, and Pseudomonas aeruginosa PAO1.

For `CCCCCCCCCC(=O)N[C@@H]1CCCC[C@H]1O` (relative stereo) [Example 34, trans-N-(2-hydroxycyclohexyl)decanamide], which inhibition at 100 µM is on record?
The inhibition at 100 µM was 20 to 50%.

`CCCCCCCCCCCC(=O)N[C@@H]1CCCC[C@H]1O` (relative stereo) [Example 35, trans-N-(2-hydroxycyclohexyl)dodecanamide] was tested. Which inhibition at 100 µM did it give?
Its inhibition at 100 µM is 20 to 50%.

How did the inhibition at 100 µM turn out when `CCCCCCCCCC(=O)N[C@H]1CCC[C@H]1C(=O)O` (relative stereo) [Example 36, cis-2-decanamidocyclopentanecarboxylic acid] was run?
The inhibition at 100 µM was less than 20%.

How did the inhibition at 100 µM turn out when `CCCCCCCCCCCC(=O)Nc1ccccc1` [Example 13, N-phenyldodecanamide] was run?
The inhibition at 100 µM was less than 20%.

For `CCCCCCCCCCCC(=O)N(C)c1ccccc1` [Example 14, N-methyl-N-phenyldodecanamide], which inhibition at 100 µM is on record?
Its inhibition at 100 µM is greater than 50%.

Which inhibition at 100 µM does the source give for `CCCCCCCCCCCC(=O)Nc1ccccc1F` [Example 15, N-(2-fluorophenyl)dodecanamide] here?
The inhibition at 100 µM was less than 20%.

Which inhibition at 100 µM does the source give for `CCCCCCCCCCCC(=O)N(C)c1ccccc1F` [Example 16, N-(2-fluorophenyl)-N-methyldodecanamide] here?
The inhibition at 100 µM was greater than 50%.

With `CCCCCCCCCCCC(=O)Nc1cccc(F)c1` [Example 17, N-(3-fluorophenyl)dodecanamide] as the compound, how does the inhibition at 100 µM read?
The inhibition at 100 µM was 20 to 50%.

With `CCCCCCCCCCCC(=O)N(C)c1cccc(F)c1` [Example 18, N-(3-fluorophenyl)-N-methyldodecanamide] as the compound, how does the inhibition at 100 µM read?
Its inhibition at 100 µM is greater than 50%.

For `CCCCCCCCCCCC(=O)Nc1ccc(F)cc1` [Example 19, N-(4-fluorophenyl)dodecanamide], which inhibition at 100 µM is on record?
The inhibition at 100 µM was less than 20%.

For `CCCCCCCCCCCC(=O)N(C)c1ccc(F)cc1` [Example 20, N-(4-fluorophenyl)-N-methyldodecanamide], which inhibition at 100 µM is on record?
The inhibition at 100 µM was greater than 50%.

With `CCCCCCCCCCCC(=O)Nc1ccc(F)cc1F` [Example 21, N-(2,4-difluorophenyl)dodecanamide] as the compound, how does the inhibition at 100 µM read?
The inhibition at 100 µM was less than 20%.

`CCCCCCCCCCCC(=O)N(C)c1ccc(F)cc1F` [Example 22, N-(2,4-difluorophenyl)-N-methyldodecanamide] was tested. Which inhibition at 100 µM did it give?
The inhibition at 100 µM was greater than 50%.

`CCCCCCCCCCCC(=O)Nc1ccccc1C(F)(F)F` [Example 23, N-(2-(trifluoromethyl)phenyl)dodecanamide] was tested. Which inhibition at 100 µM did it give?
Its inhibition at 100 µM is less than 20%.

For `CCCCCCCCCCCC(=O)Nc1ccc(F)cc1C(F)(F)F` [Example 24, N-(4-fluoro-2-(trifluoromethyl)phenyl)dodecanamide], which inhibition at 100 µM is on record?
The inhibition at 100 µM was less than 20%.

How did the inhibition at 100 µM turn out when `CCCCCCCCCCCC(=O)Nc1ccccc1C(=O)O` [Example 25, 2-dodecanamidobenzoic acid] was run?
The inhibition at 100 µM was greater than 50%.

Which inhibition at 100 µM does the source give for `CCCCCCCCCCCC(=O)N(C)c1ccccc1C(=O)O` [Example 26, 2-(N-methyldodecanamido)benzoic acid] here?
The inhibition at 100 µM was 20 to 50%.

Which inhibition at 100 µM does the source give for `CCCCCCCCCCCC(=O)Nc1ccccc1S(=O)(=O)O` [Example 27, 2-dodecanamidobenzenesulfonic acid] here?
The inhibition at 100 µM was 20 to 50%.

How did the inhibition at 100 µM turn out when `CCCCCCCCCCCC(=O)N[C@@H](C)c1ccccc1` [Example 28, (S)-N-(1-phenylethyl)dodecanamide] was run?
Its inhibition at 100 µM is 20 to 50%.

Which inhibition at 100 µM does the source give for `CCCCCCCCCC(=O)NCc1ccco1` [Example 29, N-(furan-2-ylmethyl)decanamide] here?
The inhibition at 100 µM was 20 to 50%.

Which inhibition at 100 µM does the source give for `CCCCCCCCCCCC(=O)Nc1cc(C)nn1C(C)(C)C` [Example 30, N-(1-tert-butyl-3-methylpyrazol-5-yl)dodecanamide] here?
The inhibition at 100 µM was greater than 50%.

With `CCCCCCCCCCCC(=O)Nc1cc(C)nn1-c1ccccc1` [Example 31, N-(3-methyl-1-phenylpyrazol-5-yl)dodecanamide] as the compound, how does the inhibition at 100 µM read?
Its inhibition at 100 µM is less than 20%.

With `CCCCCCCCCC(=O)N[C@H]1CCOC1=O` [Example 32, N-decanoyl-L-homoserinelactone] as the compound, how does the inhibition at 100 µM read?
Its inhibition at 100 µM is less than 20%.

With `CCCCCCCCCCCC(=O)N[C@H]1CCOC1=O` [Example 33, N-dodecanoyl-L-homoserinelactone] as the compound, how does the inhibition at 100 µM read?
The inhibition at 100 µM was less than 20%.

For `CCCCCCCCCCCC(=O)N1CCCCC1CO` (centres unmarked) [Example 37, 1-(2-(hydroxymethyl)piperidin-1-yl)dodecan-1-one], which inhibition at 100 µM is on record?
The inhibition at 100 µM was greater than 50%.

With `CCCCNC(=O)Nc1cc(C)nn1C` [Example 38, 1-butyl-3-(1,3-dimethylpyrazol-5-yl)urea] as the compound, how does the inhibition at 100 µM read?
The inhibition at 100 µM was less than 20%.

For `CCCCNC(=O)Nc1cc(C2CC2)nn1C` [Example 39, 1-butyl-3-(3-cyclopropyl-1-methylpyrazol-5-yl)urea], which inhibition at 100 µM is on record?
Its inhibition at 100 µM is less than 20%.

How did the inhibition at 100 µM turn out when `CCCCNC(=O)Nc1cc(C(C)(C)C)nn1C` [Example 40, 1-butyl-3-(3-tert-butyl-1-methylpyrazol-5-yl)urea] was run?
The inhibition at 100 µM was less than 20%.

How did the inhibition at 100 µM turn out when `CCCCCCNC(=O)Nc1cc(C)nn1C` [Example 41, 1-(1,3-dimethylpyrazol-5-yl)-3-hexylurea] was run?
Its inhibition at 100 µM is less than 20%.

With `CCCCCCNC(=O)Nc1cc(C2CC2)nn1C` [Example 42, 1-(3-cyclopropyl-1-methylpyrazol-5-yl)-3-hexylurea] as the compound, how does the inhibition at 100 µM read?
The inhibition at 100 µM was 20 to 50%.

Which inhibition at 100 µM does the source give for `CCCCCCNC(=O)Nc1cc(C(C)(C)C)nn1C` [Example 43, 1-(3-tert-butyl-1-methylpyrazol-5-yl)-3-hexylurea] here?
The inhibition at 100 µM was 20 to 50%.

`CCCCCCCCNC(=O)Nc1cc(C)nn1C` [Example 44, 1-(1,3-dimethylpyrazol-5-yl)-3-octylurea] was tested. Which inhibition at 100 µM did it give?
Its inhibition at 100 µM is 20 to 50%.

`CCCCCCCCNC(=O)Nc1cc(C2CC2)nn1C` [Example 45, 1-(3-cyclopropyl-1-methylpyrazol-5-yl)-3-octylurea] was tested. Which inhibition at 100 µM did it give?
The inhibition at 100 µM was 20 to 50%.

With `CCCCCCCCNC(=O)Nc1cc(C(C)(C)C)nn1C` [Example 46, 1-(3-tert-butyl-1-methylpyrazol-5-yl)-3-octylurea] as the compound, how does the inhibition at 100 µM read?
The inhibition at 100 µM was greater than 50%.

How did the inhibition at 100 µM turn out when `CCCCCCCCCCNC(=O)Nc1ccccc1` [Example 48, 1-decyl-3-phenylurea] was run?
The inhibition at 100 µM was less than 20%.

How did the inhibition at 100 µM turn out when `CCCCCCCCCCNC(=O)Nc1ccccc1F` [Example 49, 1-decyl-3-(2-fluorophenyl)urea] was run?
Its inhibition at 100 µM is less than 20%.

`CCCCCCCCCCNC(=O)N(C)c1ccccc1F` [Example 50, 3-decyl-1-(2-fluorophenyl)-1-methylurea] was tested. Which inhibition at 100 µM did it give?
Its inhibition at 100 µM is 20 to 50%.

For `CCCCCCCCCCNC(=O)Nc1cccc(F)c1` [Example 51, 1-decyl-3-(3-fluorophenyl)urea], which inhibition at 100 µM is on record?
The inhibition at 100 µM was less than 20%.

How did the inhibition at 100 µM turn out when `CCCCCCCCCCNC(=O)N(C)c1cccc(F)c1` [Example 52, 3-decyl-1-(3-fluorophenyl)-1-methylurea] was run?
The inhibition at 100 µM was 20 to 50%.

With `CCCCCCCCCCNC(=O)Nc1ccc(F)cc1` [Example 53, 1-decyl-3-(4-fluorophenyl)urea] as the compound, how does the inhibition at 100 µM read?
Its inhibition at 100 µM is less than 20%.

`CCCCCCCCCCNC(=O)N(C)c1ccc(F)cc1` [Example 54, 3-decyl-1-(4-fluorophenyl)-1-methylurea] was tested. Which inhibition at 100 µM did it give?
The inhibition at 100 µM was greater than 50%.

How did the inhibition at 100 µM turn out when `CCCCCCCCCCNC(=O)Nc1ccc(F)cc1F` [Example 55, 1-decyl-3-(2,4-difluorophenyl)urea] was run?
The inhibition at 100 µM was less than 20%.

`CCCCCCCCCCNC(=O)N(C)c1ccc(F)cc1F` [Example 56, 3-decyl-1-(2,4-difluorophenyl)-1-methylurea] was tested. Which inhibition at 100 µM did it give?
The inhibition at 100 µM was less than 20%.

Which inhibition at 100 µM does the source give for `CCCCCCCCCCNC(=O)Nc1ccccc1C(F)(F)F` [Example 57, 1-decyl-3-(2-(trifluoromethyl)phenyl)urea] here?
Its inhibition at 100 µM is 20 to 50%.

`CCCCCCCCCCNC(=O)N(C)c1ccccc1C(F)(F)F` [Example 58, 3-decyl-1-methyl-1-(2-(trifluoromethyl)phenyl)urea] was tested. Which inhibition at 100 µM did it give?
Its inhibition at 100 µM is greater than 50%.

`CCCCCCCCCCNC(=O)N[C@@H](C)c1ccccc1` [Example 59, (S)-1-decyl-3-(1-phenylethyl)urea] was tested. Which inhibition at 100 µM did it give?
Its inhibition at 100 µM is less than 20%.

With `CCCCCCCCCCNC(=O)N(C)[C@H](C)c1ccccc1` [Example 60, (R)-3-decyl-1-methyl-1-(1-phenylethyl)urea] as the compound, how does the inhibition at 100 µM read?
Its inhibition at 100 µM is greater than 50%.

`CCCCCCCCCCNC(=O)Nc1ccnn1C` [Example 61, 1-decyl-3-(1-methylpyrazol-5-yl)urea] was tested. Which inhibition at 100 µM did it give?
Its inhibition at 100 µM is 20 to 50%.

For `CCCCCCCCCCNC(=O)Nc1cc(C)ns1` [Example 62, 1-decyl-3-(3-methylisothiazol-5-yl)urea], which inhibition at 100 µM is on record?
Its inhibition at 100 µM is less than 20%.

How did the inhibition at 100 µM turn out when `CCCCCCCCCCNC(=O)Nc1cc(C)nn1C` [Example 63, 1-decyl-3-(1,3-dimethylpyrazol-5-yl)urea] was run?
The inhibition at 100 µM was 20 to 50%.
